Test results reported in publication PMC10291549, “Reaction Behavior of [1,3-Diethyl-4,5-diphenyl-1H-imidazol-2-ylidene] Containing Gold(I/III) Complexes against Ingredients of the Cell Culture Medium and the Meaning on the Potential Use for Cancer Eradication Therapy” (Journal of Medicinal Chemistry, 2023).

How the values were obtained:
A549 cells = format: cell-based; settings: 72 h incubation; mean ± SD of two or three independent experiments; read-out: metabolic activity IC50, A549
[1] = system: A549-R cells (Taxol/Paclitaxel-resistant subclone); format: cell-based; settings: 72 h incubation; mean ± SD of two or three independent experiments; read-out: metabolic activity IC50, A549-R
K562 cells = format: cell-based; settings: 72 h incubation; mean ± SD of two or three independent experiments; read-out: metabolic activity IC50, K562
[2] = system: K562-R cells (Doxorubicin-resistant subclone); format: cell-based; settings: 72 h incubation; mean ± SD of two or three independent experiments; read-out: metabolic activity IC50, K562-R
MCF-7 cells = format: cell-based, human; settings: 72 h incubation; mean ± SD of two or three independent experiments; read-out: metabolic activity IC50, MCF-7
[3] = system: MCF-7TamR cells (Tamoxifen-resistant subline); format: cell-based, human; settings: 72 h incubation; mean ± SD of two or three independent experiments; read-out: metabolic activity IC50, MCF-7TamR
A2780 cells = format: cell-based, human; settings: 72 h incubation; mean ± SD of two or three independent experiments; read-out: metabolic activity IC50, A2780
[4] = system: A2780cis cells (Cisplatin-resistant); format: cell-based, human; settings: 72 h incubation; mean ± SD of two or three independent experiments; read-out: metabolic activity IC50, A2780cis
IGROV1 cells = format: cell-based; settings: 72 h incubation; mean ± SD of two or three independent experiments; read-out: metabolic activity IC50, IGROV1
IGROV1-CSC cells = format: cell-based; settings: 72 h incubation; mean ± SD of two or three independent experiments; read-out: metabolic activity IC50, IGROV1-CSC
[5] = system: SV-80 lung fibroblast cells; experiment: Modified MTT assay in noncancerous cells; format: cell-based
[6] = HPLC reactivity study in chloride containing ACN/water; format: physicochemical
[7] = HPLC reactivity study with GSH in ACN/water; format: physicochemical; settings: 20 equiv GSH; for substitution to (NHC)Au(I)-GSH adduct 12: t0h (1.5 min)
Method: (§1) All nucleophiles (chloride, amino acids, and GSH) were separately reacted with 5–11 in ACN/water = 50/50 (v/v) mixtures at a complex concentration 0.5 mM. This solvent composition was chosen to prevent precipitation of the complex and the formed degradation products.
(§2) Amino acids, as well as GSH, were used in 20-fold excess, as realized at a complex concentration of 10 μM in the cell culture medium. Thereto, the respective complex, dissolved in ACN (1 mM), was combined with the same amount of aqueous solution of the nucleophile (20 mM).
(§3) The mixture was then incubated for 24 h at rt and monitored at various time points via HPLC using an RP-C18 column and gradient elution (70/30 (v/v) to 90/10 (v/v)) of ACN/water (0.1% trifluoroacetic acid (TFA)).
(§4) Experiments in ACN/water: 1.0 mM solutions of the respective complex were prepared in ACN and diluted with HPLC-grade water (50/50, (v/v)) containing the double-concentrated amount of respective amino acid (20 mM), GSH (20 mM), sodium ascorbate (20 mM), or NADPH (20 mM). As a chloride source, an aqueous solution of KCl 0.8 g/L and NaCl 12 g/L was used. In each case, a final complex concentration of 0.5 mM was achieved. The solutions were incubated for 24 h at rt. For the experiments with RPMI 1640, the aqueous phase was replaced by a cell culture medium.
(§5) Samples (20 μL each) were taken at appropriate time points (t = 0 (1.5 min), 0.5, 1, 1.5, 2, 8, 12, and 24 h) and analyzed with a Shimadzu prominence HPLC system. The mobile phase consisted of ACN (HPLC-grade) and water (HPLC-grade) with 0.1% TFA. To achieve a separation of the compounds, gradient elution from (70/30 (v/v) to 90/10 (v/v)) of ACN/water (0.1% trifluoroacetic acid (TFA)) was used with a flow rate of 1 mL/min at an oven temperature of 35 °C. All solvents have been degassed before use. The injection volume was 20 μL, and the detection wavelength was set at 235 nm, to detect the gold complexes and the amino acids in the chromatogram.

[8] = HPLC reactivity study with sodium ascorbate; format: physicochemical; settings: 24 h
Method: (§6) GSH caused only substitution reactions, without reduction of Au(I) to Au(0). […] Neither reduction to gold(0), release of the NHC ligand, nor coordination to the gold(I) center occurred.
as §4, §5

[9] = HPLC reactivity study with NADPH; format: physicochemical; settings: 24 h
Method: as §6, §4, §5

[10] = HPLC control experiment with GSH in PBS; format: physicochemical; settings: 20 equiv GSH in PBS
Method: The reduced transformation (compared to the direct reaction with GSH) might be the consequence of the high chloride concentration in the medium. To confirm this assumption, 5 was incubated in a control experiment with 20 equiv of GSH (as described above) in phosphate buffered saline (PBS). At t0h, 65.7% of 12 was formed. The amount increased during 24 h to 68.0% of 12 and 2.1% of 8 appeared (Figure S33).
as §4, §5

[11] = HPLC degradation study in ACN/RPMI 1640 cell culture medium
[12] = HPLC reactivity study with non-thiol containing amino acids in ACN/water; format: physicochemical; settings: for formation of 8: t24h, 0.5 mM
Method: as §1, §2, §3, §4, §5

[13] = FCS influence on stability of 7 in RPMI 1640 (protein binding, HPLC); format: in vitro ADME; settings: 4 h, 37 °C
Method: The complex (conc. 30 μM) dissolved in RPMI 1640 medium supplemented with 10% FCS was incubated for 4 h at 37 °C in the dark. Subsequently, the proteins were precipitated with ACN and the supernatant was dried by lyophilization. The remaining complexes were extracted from the lyophilizate with DCM. The organic layer was evaporated, and the residue was finally dissolved in 1 mL of ACN. This solution was then analyzed by HPLC as described above.
To 11 mL of RPMI 1640 including 10% FCS, 11 μL of a freshly prepared 3 mM DMF solution of 7 was added. The solution was then incubated for 4 h at 37 °C in the dark. Proteins were precipitated with 33 mL of ACN. The mixture was cooled to −30 °C and stored for 2 h at −20 °C. Subsequently, the supernatant was separated by centrifugation (3000 rpm), collected, and dried by lyophilization. The lyophilizate was extracted three times with 5 mL of DCM and finally dried under reduced pressure. The residue was taken up in 1 mL of ACN, and 30 μL was analyzed by the HPLC method described above. Peak area was used for quantification. The calibrations of 5, 7, and 8 were obtained by injecting 30 μL of the respective solution of pure substances in ACN at a concentration of 1–30 μM (R^2 > 0.99).

[14] = t24h, chloride containing ACN/water 50/50, 0.5 mM
[15] = t24h, ACN/RPMI 1640 50/50, 0.5 mM

Substance | IC50 (A549 cells) [µM] | IC50 [1] [µM] | IC50 (K562 cells) [µM] | IC50 [2] [µM] | IC50 (MCF-7 cells) [µM] | IC50 [3] [µM] | IC50 (A2780 cells) [µM] | IC50 [4] [µM] | IC50 (IGROV1 cells) [µM] | IC50 (IGROV1-CSC cells) [µM] | formation of 8 (ligand scrambling / reduction) [6, 14] [%] | substitution to (NHC)Au(I)-GSH adduct 12 ([7]; ACN/water 50/50, 0.5 mM) | formation of 8 [11, 15] [%] | formation of GSH-adduct 12 [11, 15] | also measured
Chlorido[1,3-diethyl-4,5-diphenyl-1H-imidazol-2-ylidene]gold(I) [Complex 5] | > 10 | > 10 | > 10 | > 10 | 5.76 ± 0.88 | 4.95 ± 0.39 | 9.45 ± 0.96 | 4.08 ± 0.8 | 7.53 ± 1.9 | 9.18 ± 1.32 | 0.9 | quantitatively | 6.2 | 5.1% | metabolic activity (remaining) in SV-80 cells ([5]; at 10 μM, mean of three independent experiments): 64%; ligand scrambling to 8 [8]: 3.4%; ligand scrambling to 8 [9]: 5.6%; formation of 12 ([10]; t0h): 65.7%; formation of 8 ([10]; t24h): 2.1%; formation of 12 ([10]; t24h): 68.0%
Iodido[1,3-diethyl-4,5-diphenyl-1H-imidazol-2-ylidene]gold(I) [Complex 7] | 1.12 ± 0.17 | 1.21 ± 0.36 | 0.72 ± 0.3 | 1.53 ± 1.04 | 0.48 ± 0.08 | 1.63 ± 0.79 | 1.43 ± 0.4 | 0.4 ± 0.06 | 1.94 ± 0.35 | 0.47 ± 0.13 | 18.9 | 9.7% | 23.1 | No GSH-adduct 12 could be detected | metabolic activity (remaining) in SV-80 cells ([5]; at 1.5 μM): 77%; conversion to 5 ([6]; t0h (1.5 min), ACN/water 50/50, 6.0 g/L NaCl + 0.4 g/L KCl, 0.5 mM complex, rt): 13.3%; formation of 8 ([6]; t0h (1.5 min), chloride containing ACN/water 50/50, 0.5 mM): 3.6%; quantity of 5 formed [6, 14]: stayed constant; ratio of 7/8 ([12]; 20 equiv arginine (Arg), after 30 min, stable until 24 h): 90/10; reaction with amino acids ([12]; 20 equiv non-thiol containing amino acid, ACN/water 50/50): did not react; formation of 8 ([12]; 20 equiv glutamic acid (Glu), ACN/water 50/50): 31.6%; formation of 8 ([12]; 20 equiv methionine (Met), ACN/water 50/50): 27.5%; formation of 8 ([12]; pure ACN/water 50/50): 31.2%; start of ligand scrambling ([7]; time-dependent analysis): 1 h; formation of 8 ([7]; t24h, ACN/water 50/50, 0.5 mM): 9.8%; proportion of 12 ([7]; t24h, ACN/water 50/50, 0.5 mM): 4.7%; concentration in the free fraction after incubation of 7 ([13]; 7 (30 μM) in RPMI 1640 + 10% FCS, dark, protein precipitation with ACN, from HPLC peak areas): 780 nM; protein-bound fraction ([13]; 7 and its degradation products in RPMI 1640 + 10% FCS): about 50%; amount of 5 formed ([11]; during 24 h, ACN/RPMI 1640 50/50): remained constant; conversion to 5 ([11]; t0h, ACN/RPMI 1640 50/50 (without FCS), 0.5 mM): 14.3%; formation of 8 ([11]; t0h, ACN/RPMI 1640 50/50, 0.5 mM): 0.8%
